We go through 25 compounds from ChEMBL document CHEMBL1150259, “Identification of Plasmodium falciparum spermidine synthase active site binders through structure-based virtual screening” (J Med Chem, 2008).

Molecules are shown by their SMILES. Activity calls are given as the source filed them. The calls are words filed in the database; no cut-off is given here.

As a reminder, the IC50 is the concentration that gives 50% inhibition. Lower therefore signals greater potency in that assay.

The first test concerns Plasmodium falciparum. Nature of the test: Growth inhibition of Plasmodium falciparum. It is filed as functional, organism-based.
On to `CC1CCC(N)CC1` (centres undefined), for which the IC50 is 34 µM.

Another test addresses T1, Spermidine synthase (Plasmodium falciparum) (UniProt Q9NFS5).
T1 sequence (whole entry): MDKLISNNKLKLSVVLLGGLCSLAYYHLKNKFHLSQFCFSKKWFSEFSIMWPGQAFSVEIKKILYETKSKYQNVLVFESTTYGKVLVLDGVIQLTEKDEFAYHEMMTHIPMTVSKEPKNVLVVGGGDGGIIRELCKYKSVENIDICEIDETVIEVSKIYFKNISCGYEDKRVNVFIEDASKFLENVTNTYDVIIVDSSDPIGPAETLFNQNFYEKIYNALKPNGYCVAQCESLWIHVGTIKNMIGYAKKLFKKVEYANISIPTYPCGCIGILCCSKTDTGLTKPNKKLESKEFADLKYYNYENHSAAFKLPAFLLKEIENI
Nature of the test: Binding affinity to Plasmodium falciparum spermidine synthase by saturation transfer difference-NMR experiment relative to methylthioadenosine.
As to `Nc1nnc(SCC(=O)Nc2cccc(Oc3ccccc3)c2)[nH]1`, the result was inactive.
Same read-out and setting: as for `Nc1ncnc2c1ncn2[C@@H]1O[C@H](CO)[C@@H](O)[C@H]1O`, the entry is “Active”; as for `NCCCCCc1nc2ccccc2[nH]1`, “Active”.
Still for that read-out and setting: as for `NC(=O)CSc1nc2ncnc(N)c2[nH]1`, the entry is “Active”.

The target in the next test is T1, Spermidine synthase (Plasmodium falciparum). Put plainly: Binding affinity to Plasmodium falciparum spermidine synthase by saturation transfer difference-NMR experiment.
Regarding `Nc1nnc(SCC(=O)Nc2cccc(Oc3ccccc3)c2)[nH]1`, the outcome was Active.
As to `O=C(C1CCCCN1)N1CCN(Cc2cccnc2)CC1` (centres undefined), the outcome was inactive.
The same measure, in the same setting: for `O=C(CSc1nnc[nH]1)Nc1nccs1` the value was “inactive”; for `Nc1nnc(SCC(=O)NCc2ccc3c(c2)OCO3)[nH]1`, “inactive”.
Turning to `O=C(c1ccc2cn[nH]c2c1)N1CCN(c2ccccn2)CC1`, the outcome was inactive.
On the same count and under the same terms, for `Nc1nc(N)nc(SCC(=O)NCc2ccc(F)cc2)n1` the value was “inactive”.
On the same count and under the same terms, as for `CCCCc1nnc(NC(=O)CSc2nnc[nH]2)s1`, the entry is “inactive”.
On to `O=C(CSc1nccc(=O)[nH]1)NCc1ccco1`, for which the result was inactive.
With `O=C(CSc1nnc[nH]1)c1ccc2c(c1)OCCO2`, the outcome was inactive.
As for `NCCSC1CC(=O)N(c2ccc(F)cc2)C1=O` (centres undefined), the outcome was inactive.
In the case of `NC(=O)c1ncn([C@@H]2O[C@H](CO)[C@@H](O)[C@H]2O)n1`, the result was inactive.
Take `O=C(c1ccc2[nH]cnc2c1)N1CCN(C/C=C/c2ccccc2)CC1`: the outcome was Active.
On the same count and under the same terms, as for `N=c1c(N)c(O)ncn1CC(=O)c1ccc(I)cc1`, the entry is “inactive”; as for `Nc1ncnc2c1ncn2[C@@H]1O[C@H](CO)[C@@H](O)[C@H]1O`, “Active”.
`O=C(CSc1cnn[nH]1)Nc1ncccn1`: the outcome was inactive.
`O=C1C=C(NCCc2c[nH]cn2)CC1`: the result was inactive.
Still for that read-out and setting: as for `Nc1nnc(SCC(=O)NCC2CN(Cc3ccccc3)CCO2)s1` (centres undefined), the entry is “inactive”; as for `NC(=O)CSc1nc2ncnc(N)c2[nH]1`, “Active”.
The same measure, in the same setting: for `Cn1c(SCC(=O)c2ccc3[nH]c(=O)oc3c2)nnc1-c1ccncc1` the value was “inactive”; for `O=C1NC(=S)NC(=O)C1=CNCCc1cnc[nH]1`, “inactive”.
For `NCCCCCCCNC(=O)Cc1ncc(C(F)(F)F)cc1Cl`, the result was inactive.
As for `NCCCCCc1nnc(SCC(=O)Nc2cccc(Cl)c2)o1`, the outcome was inactive.

Another test concerns the target T2, Spermidine synthase (Plasmodium falciparum, UniProt Q9NFS5).
T2 sequence (Q9NFS5 whole entry): T1 sequence (whole entry)
Nature of the test: Inhibition of Plasmodium falciparum spermidine synthase.
Take `CSC[C@H]1O[C@@H](n2cnc3c(N)ncnc32)[C@H](O)[C@@H]1O` [METHYLTHIOADENOSINE]: half-maximal inhibition (IC50) required 159 µM.
The same measure, in the same setting: for `CC1CCC(N)CC1` (centres undefined) the value was 1.4 µM.
